Laboratory results reported in article PMC9604325 (International Journal of Molecular Sciences, 2022).

Key:
[1] = test system: store-operated calcium entry (SOCE) in HT-22 cells; test: SOCE Ca2+ imaging in Fluo3-loaded HT-22 cells (Tg-induced store release, then Ca2+ entry); type: cell-based, mouse
Experimental: (§1) Cytosolic Ca^2+ imaging was assessed in the HT-22 cell culture with the fluorescent probe Fluo3-AM. […] The untread cells were regarded as the controls. […] Then, the cells were washed once with 1 mL of MLocke’s K5 buffer, and the 35 mm culture dishes were placed in the thermostatic plate at 37 °C (Warner Instrument Co., Hamden, CT, USA) of the Nikon Diaphot 300 inverted epifluorescence microscope (Tokyo, Japan) with an NCF Plan ELWD 40× objective (the pixel size of the images shown in this work was 0.2 μm). The images of the Fluo3-loaded cells were acquired with the Hamamatsu Orca-R^2 CCD camera (binning mode 2 × 2) with an excitation filter of 470 nm, a dichroic mirror of 510 nm with an emission filter of 520 nm, and a 0.3 s exposure time. […] The depletion of the Ca^2+ stores was triggered by adding 2 μM of the SERCA pump blocker Tg plus ethylene glycol tetraacetic acid (1 mM), in a Ca^2+-free Mlocke’s K5 buffer. Then, the SOCE was measured after the addition of 3 mM of CaCl2 to the Tg-containing medium. […] The activity of the RyR Ca^2+-leak channels was evaluated by incubation with 100 μM of the RyR antagonist ryanodine for 1 h in the HT-22 culture media. In all experiments with antagonists, we performed the respective dimethylsulfoxide vehicle controls.

HT-22 cells [2] = test: Mitochondrial membrane potential, TMRE assay; type: cell-based, mouse
Experimental: Mitochondrial depolarization was monitored with the fluorescent dye TMRE, as previously described, with small changes. […] Then, the HT-22 culture dishes were placed in the thermostatic plate at 37 °C of the inverted epifluorescence microscope and the fluorescence kinetic was recorded at 556 nm excitation filter and a dichroic mirror of 580 nm with an emission filter of 590 nm and a time of exposure 0.01 s. To assess the level of the mitochondrial membrane depolarization, 5 μM of a potent mitochondrial oxidative phosphorylation uncoupler FCCP was added to the medium. The region of interest (ROI) tool of the HCImage software was used for the quantitative analysis. The average fluorescence intensity readings per pixel in the HT-22 cells were taken from several fields for a total number of 80 cells.

HT22 cells = test: Intracellular calcium response of Fluo3-loaded HT22 cells to cholinergic agonists; type: cell-based, mouse; conditions: for intracellular calcium response in the majority of the cells: Fluo3-loaded HT22 cells
Experimental: as §1
Supplementary Figure S8. Representative kinetic traces of the average fluorescence intensity of Fluo3-loaded
HT22 cells (Ft/F0) recorded over time every 15 s intervals
Ca2+ entry mediated by cholinergic receptors. The data shown are the means ±SEM of n =16 cells.
(1 picture or pasted object on this page, not shown here)

STIM1 = target: T1, STIM1 (Mus musculus, UniProt P70302); test: Co-immunoprecipitation of STIM1 with anti-Aβ antibody from HT-22 lysates, Western blot; type: binding; conditions: 250 nM Aβ(1-42), HT-22 cell lysates
T1 construct: endogenous in cells; host or cells: HT-22 cell lysate
Experimental: The HT-22 cells were lysed in a buffer: 25 mM of Tris(hydroxymethyl)aminomethane–HCl, pH 7.4, 150 mM of NaCl, 5 mM of ethylenediaminetetraacetic acid, 50 mM of NaF, 5 mM of NaVO3, 0.25% of Triton X-100, and 5 mM of methyl-β-cyclodextrin, supplemented with 1× […]^TM protease inhibitor cocktail. After cell centrifugation at 2000× g for 2 min at 4 °C, the supernatant was collected and supplemented with 50% glycerol. Bradford’s method was used to measure the protein concentration in HT22 lysates using the bovine serum albumin as the standard. The co-immunoprecipitation was carried out using the protein A/G PLUS-Agarose, following the instructions described by the manufacturer in the technical data sheet. […] Then, 10 μg of mouse anti-β-amyloid antibody was added to the Eppendorf tube and incubated for 1 h at 4 °C with continuous gentle shaking. Afterward, 50 μL of protein A/G PLUS-Agarose was added and incubated overnight at 4 °C with continuous shaking. […] The agarose beads were precipitated by centrifugation at 2500× g for 5 min at 4 °C in a refrigerated Eppendorf microcentrifuge. […] A centrifugation step (2500× g, 5 min at 4 °C) was performed in a refrigerated Eppendorf microcentrifuge after each washing step. […]

HT-22 cells [3] = test: Internalization of Aβ(1-42) in living HT-22 cells (red fluorescence of Aβ(1-42)*555, calibration curve); type: cell-based, mouse; conditions: 2 μM Aβ(1-42) total (unlabeled plus Aβ(1-42)*555) in culture medium, 37 °C, 5% CO2, red fluorescence microscopy, calibration with Aβ(1-42)*555 in fixed permeabilized cells, mean ± SEM
Experimental: Then, the cells were washed once with 1 mL of MLocke’s K5, and the 35 mm dishes were placed in the holder of the microscope at 37 °C for RF imaging. The fluorescence microscopy images of the HT-22 cells were acquired with a Hamamatsu Orca-R^2 CCD camera (binning mode 2 × 2) camera (Hamamatsu, Hamamatsu-city, Japan) attached to a Nikon Diaphot 300 epifluorescence microscope (Tokyo, Japan) with an NCF Plan ELWD 40× objective, using an excitation filter of 556 nm and a dichroic mirror of 580 nm with an emission filter of 590 nm, and a 0.06 s exposure time. The ROI tool of the HCImage software was used for the quantitative analysis. The average fluorescence intensity readings per pixel in HT-22 cells were taken from several fields for a total number of 80 cells and after the subtraction of the autofluorescence. […]
Supplementary Figure S1. Calibration data were obtained with […]
medium of fixed and permeabilized HT-22 cells to calculate the internalized concentration of Aβ(1–42) in living HT-22 cells. The […]
monomers/L. The results shown are the mean ± SEM of
(also on this page, place not known: Fluorescence Intensity per pixel (A.U.))

PDI = test system: PDI; design: method as in earlier work; conditions: up to 200 nM Aβ(1-42), HT-22 cell lysates, isomerase assay of ref 67; cited from earlier work
[4] = test system: mature cerebellar granule neurons; conditions: 2 h of incubation; cited from earlier work
HT-22 cells [5] = test: Cellular GSH level, monochlorobimane fluorescence; type: cell-based, mouse; conditions: 2 μM Aβ(1-42), 2 h or 5 h; 10 μM MCB
Experimental: The cellular GSH level was monitored with MCB using fluorescence microscopy, as described in our previous work. Images were acquired with a Nikon Diaphot 300 epifluorescence microscope, with an excitation filter of 380 nm.
(A) Representative microscopy images
(B) Means of the average fluorescence intensity
Supplementary Figure S5. GSH levels are not altered after 2 h […]
37 ᵒC were washed once with MLocke’s K5 buffer and the plates were placed in the holder of the fluorescence microscope (37 ᵒC) for cell imaging before and after the addition of 10 μM MCB as described in the Material and Methods section.
Panel A: representative bright field and blue fluorescence images
(GS-MCB) acquired 2 min after MCB addition of untreated cells […]
exposure was 0.7 s and the scale bar inserted = 20 μm. Panel B: means of fluorescence intensity per pixel of HT-22 cells after 2 min of incubation with MCB (10 μM). The results shown are the […]
in GSH levels between untreated cells (control) and cells treated […]
(also on this page, place not known: 0 100 200 300 400 Fluorescenece (Intensity/pixel) µM Aβ(1-42) µM Aβ(1-42) n.s. n.s. Bright Blue Fluorescence Control 2h IJMS-1941218 field 2 2 of MCB 2 2 h 5 h) […]

HT-22 cells [6] = test: Intracellular ROS, H2DCFDA oxidation; type: cell-based, mouse; conditions: 2 μM Aβ(1-42), 10 μM H2DCFDA, p < 0.05
Experimental: For the detection of intracellular ROS levels, we measured the oxidation of H2DCFDA to the fluorescent compound dichlorofluorescein, as previously described, with minor modifications. […] Then, 10 μM of H2DCFDA was added to the medium and the fluorescence intensity was recorded every 15 s for 10 min with an excitation filter of 470 nm, and 510 nm dichroic mirror/520 nm emission filter, using an exposure time of 0.2 s.

HT-22 cells [7] = test: Resting cytosolic Ca2+ concentration, Fura2/Fluo3-loaded HT-22 cells; type: cell-based, mouse; conditions: 2 μM Aβ(1-42), control 75 ± 8 nM, mean ± SEM of triplicates, n > 60 cells
Experimental: as §1, with “vehicle controls. […]” for “vehicle controls.”

RyR = target: T2, RyR (Mus musculus, UniProt E9Q401); test: Tg-induced Ca2+ release from stores in Fluo3-loaded HT-22 cells with the RyR antagonist ryanodine; type: cell-based
T2 construct: incubation with 100 μM of the RyR antagonist ryanodine for 1 h in the HT-22 culture media; endogenous in cells; host or cells: HT-22 (mouse hippocampal cell line)
Experimental: as §1

T2 sequence (E9Q401 whole entry): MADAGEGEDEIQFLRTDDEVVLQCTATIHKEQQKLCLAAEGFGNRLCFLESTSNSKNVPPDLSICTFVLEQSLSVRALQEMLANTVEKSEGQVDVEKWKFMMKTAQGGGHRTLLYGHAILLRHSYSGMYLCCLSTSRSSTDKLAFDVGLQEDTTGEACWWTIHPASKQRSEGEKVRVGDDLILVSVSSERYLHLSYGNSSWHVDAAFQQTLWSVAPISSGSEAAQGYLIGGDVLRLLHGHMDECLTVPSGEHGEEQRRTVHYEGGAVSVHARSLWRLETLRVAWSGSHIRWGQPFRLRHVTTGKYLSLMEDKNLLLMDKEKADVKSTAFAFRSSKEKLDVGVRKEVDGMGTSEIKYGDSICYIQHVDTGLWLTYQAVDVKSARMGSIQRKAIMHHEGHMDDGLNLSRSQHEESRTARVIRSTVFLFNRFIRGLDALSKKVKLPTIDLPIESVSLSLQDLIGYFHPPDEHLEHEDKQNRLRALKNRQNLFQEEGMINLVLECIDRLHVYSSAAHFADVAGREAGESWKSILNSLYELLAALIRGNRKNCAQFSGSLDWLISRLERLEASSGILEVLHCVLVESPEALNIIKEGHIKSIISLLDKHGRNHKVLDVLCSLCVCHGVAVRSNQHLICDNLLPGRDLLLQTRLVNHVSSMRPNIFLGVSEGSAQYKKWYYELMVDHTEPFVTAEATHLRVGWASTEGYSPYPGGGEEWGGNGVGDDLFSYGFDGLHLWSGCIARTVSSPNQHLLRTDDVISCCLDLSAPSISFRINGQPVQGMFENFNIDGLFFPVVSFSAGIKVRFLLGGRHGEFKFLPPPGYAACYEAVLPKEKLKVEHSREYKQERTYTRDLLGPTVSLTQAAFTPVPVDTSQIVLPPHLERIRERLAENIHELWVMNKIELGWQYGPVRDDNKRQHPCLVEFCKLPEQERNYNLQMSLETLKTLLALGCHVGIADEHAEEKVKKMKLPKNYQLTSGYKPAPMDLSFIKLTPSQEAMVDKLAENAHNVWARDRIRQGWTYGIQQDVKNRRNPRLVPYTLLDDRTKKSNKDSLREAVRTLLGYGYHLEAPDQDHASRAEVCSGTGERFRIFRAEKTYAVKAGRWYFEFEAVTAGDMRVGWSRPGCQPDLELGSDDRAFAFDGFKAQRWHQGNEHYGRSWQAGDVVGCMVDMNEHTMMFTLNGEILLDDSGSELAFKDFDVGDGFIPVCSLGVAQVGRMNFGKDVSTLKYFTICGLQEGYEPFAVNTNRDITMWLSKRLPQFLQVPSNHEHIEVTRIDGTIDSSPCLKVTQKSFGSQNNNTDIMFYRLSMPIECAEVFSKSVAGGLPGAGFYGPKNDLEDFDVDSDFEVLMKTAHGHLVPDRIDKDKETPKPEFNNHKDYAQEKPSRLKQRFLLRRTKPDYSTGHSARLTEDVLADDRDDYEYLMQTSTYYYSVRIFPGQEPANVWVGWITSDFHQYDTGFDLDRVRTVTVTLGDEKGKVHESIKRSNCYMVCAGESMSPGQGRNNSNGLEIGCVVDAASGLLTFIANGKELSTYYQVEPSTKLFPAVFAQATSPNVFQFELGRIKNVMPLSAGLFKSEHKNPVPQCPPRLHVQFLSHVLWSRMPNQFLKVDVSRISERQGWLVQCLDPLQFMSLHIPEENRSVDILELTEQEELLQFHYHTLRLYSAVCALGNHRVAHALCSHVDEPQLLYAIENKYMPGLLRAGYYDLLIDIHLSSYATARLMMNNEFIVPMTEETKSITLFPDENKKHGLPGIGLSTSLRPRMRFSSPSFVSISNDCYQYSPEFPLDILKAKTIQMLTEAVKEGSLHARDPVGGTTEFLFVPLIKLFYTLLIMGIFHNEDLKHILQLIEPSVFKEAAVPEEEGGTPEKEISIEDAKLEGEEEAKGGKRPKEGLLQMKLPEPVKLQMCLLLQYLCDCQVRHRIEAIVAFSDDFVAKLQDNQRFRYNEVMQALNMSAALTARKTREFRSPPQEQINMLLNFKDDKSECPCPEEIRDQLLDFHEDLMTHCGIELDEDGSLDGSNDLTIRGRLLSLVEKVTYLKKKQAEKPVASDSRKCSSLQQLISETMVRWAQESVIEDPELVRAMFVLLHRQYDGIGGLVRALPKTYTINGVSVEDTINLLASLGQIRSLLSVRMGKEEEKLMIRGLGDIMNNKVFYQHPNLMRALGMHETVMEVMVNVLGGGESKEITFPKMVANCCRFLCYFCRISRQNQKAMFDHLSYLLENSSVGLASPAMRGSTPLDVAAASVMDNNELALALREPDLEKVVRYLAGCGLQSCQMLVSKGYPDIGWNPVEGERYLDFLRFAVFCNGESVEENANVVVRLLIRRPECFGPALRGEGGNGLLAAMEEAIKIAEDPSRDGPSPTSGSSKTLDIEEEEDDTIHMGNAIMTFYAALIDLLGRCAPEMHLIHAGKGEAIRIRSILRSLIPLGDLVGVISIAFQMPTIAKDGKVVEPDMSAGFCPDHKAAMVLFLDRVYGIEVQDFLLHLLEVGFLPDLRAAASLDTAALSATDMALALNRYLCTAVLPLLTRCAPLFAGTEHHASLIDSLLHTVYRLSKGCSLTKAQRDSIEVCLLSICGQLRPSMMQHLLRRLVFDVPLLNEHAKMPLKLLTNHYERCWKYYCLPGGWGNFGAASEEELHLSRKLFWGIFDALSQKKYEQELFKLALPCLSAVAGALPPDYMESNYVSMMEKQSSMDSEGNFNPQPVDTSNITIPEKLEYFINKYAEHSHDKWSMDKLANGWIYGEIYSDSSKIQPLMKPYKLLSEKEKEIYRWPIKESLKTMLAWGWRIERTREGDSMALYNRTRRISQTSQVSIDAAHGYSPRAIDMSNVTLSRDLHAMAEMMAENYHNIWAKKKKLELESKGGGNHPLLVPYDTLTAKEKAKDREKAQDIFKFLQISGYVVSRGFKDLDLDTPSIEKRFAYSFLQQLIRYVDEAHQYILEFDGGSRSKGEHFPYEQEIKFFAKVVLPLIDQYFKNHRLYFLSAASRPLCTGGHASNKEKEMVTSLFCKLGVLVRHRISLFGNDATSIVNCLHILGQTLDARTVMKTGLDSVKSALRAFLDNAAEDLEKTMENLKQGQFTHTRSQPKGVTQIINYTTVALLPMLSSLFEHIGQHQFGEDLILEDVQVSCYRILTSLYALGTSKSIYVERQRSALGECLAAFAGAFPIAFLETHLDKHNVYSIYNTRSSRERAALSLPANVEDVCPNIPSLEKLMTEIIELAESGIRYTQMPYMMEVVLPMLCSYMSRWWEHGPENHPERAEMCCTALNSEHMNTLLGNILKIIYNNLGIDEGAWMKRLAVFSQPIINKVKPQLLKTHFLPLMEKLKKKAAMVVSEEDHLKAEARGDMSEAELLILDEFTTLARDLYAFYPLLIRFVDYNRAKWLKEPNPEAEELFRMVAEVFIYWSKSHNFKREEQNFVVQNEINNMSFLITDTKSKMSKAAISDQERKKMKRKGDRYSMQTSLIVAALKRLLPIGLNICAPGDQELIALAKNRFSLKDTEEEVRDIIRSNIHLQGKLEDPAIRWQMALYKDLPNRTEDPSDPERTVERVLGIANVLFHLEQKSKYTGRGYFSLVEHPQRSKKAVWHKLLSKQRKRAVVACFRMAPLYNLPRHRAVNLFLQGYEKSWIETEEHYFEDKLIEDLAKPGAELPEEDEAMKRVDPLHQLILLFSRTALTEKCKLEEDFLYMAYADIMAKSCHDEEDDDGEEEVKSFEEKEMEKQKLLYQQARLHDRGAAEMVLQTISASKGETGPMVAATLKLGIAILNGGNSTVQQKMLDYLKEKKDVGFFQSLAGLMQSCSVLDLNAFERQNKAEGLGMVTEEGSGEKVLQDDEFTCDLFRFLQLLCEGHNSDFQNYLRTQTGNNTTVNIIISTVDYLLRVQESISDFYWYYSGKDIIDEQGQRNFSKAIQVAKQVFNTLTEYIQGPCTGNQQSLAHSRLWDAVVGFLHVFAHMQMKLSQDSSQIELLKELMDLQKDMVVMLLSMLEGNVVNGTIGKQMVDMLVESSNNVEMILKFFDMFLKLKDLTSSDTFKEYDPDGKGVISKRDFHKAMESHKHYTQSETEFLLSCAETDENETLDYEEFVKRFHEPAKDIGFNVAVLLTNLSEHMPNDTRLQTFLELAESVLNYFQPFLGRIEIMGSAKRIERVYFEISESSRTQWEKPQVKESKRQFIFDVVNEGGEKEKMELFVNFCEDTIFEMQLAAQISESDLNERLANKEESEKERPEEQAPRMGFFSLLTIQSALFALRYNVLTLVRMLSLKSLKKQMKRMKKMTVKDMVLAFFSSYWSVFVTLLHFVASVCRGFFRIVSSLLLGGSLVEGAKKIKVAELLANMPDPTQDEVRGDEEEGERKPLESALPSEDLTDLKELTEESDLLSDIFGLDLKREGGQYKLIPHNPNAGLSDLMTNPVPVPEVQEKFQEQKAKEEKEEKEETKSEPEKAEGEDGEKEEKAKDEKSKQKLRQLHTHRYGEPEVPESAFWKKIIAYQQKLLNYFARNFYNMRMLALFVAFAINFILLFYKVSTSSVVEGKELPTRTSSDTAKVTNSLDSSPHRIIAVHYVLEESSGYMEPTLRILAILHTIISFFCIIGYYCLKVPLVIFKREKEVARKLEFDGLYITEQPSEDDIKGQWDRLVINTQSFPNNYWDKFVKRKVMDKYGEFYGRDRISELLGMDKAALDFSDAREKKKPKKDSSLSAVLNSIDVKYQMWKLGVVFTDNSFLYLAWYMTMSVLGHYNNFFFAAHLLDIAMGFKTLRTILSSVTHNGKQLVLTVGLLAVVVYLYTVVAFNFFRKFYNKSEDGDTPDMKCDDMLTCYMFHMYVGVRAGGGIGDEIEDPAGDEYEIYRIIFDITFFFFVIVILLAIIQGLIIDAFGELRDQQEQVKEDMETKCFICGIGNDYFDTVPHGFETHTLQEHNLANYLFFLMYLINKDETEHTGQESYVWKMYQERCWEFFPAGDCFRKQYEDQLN

**Q.** With `Cc1nnsc1C(=O)Nc1ccc(-n2nc(C(F)(F)F)cc2C(F)(F)F)cc1` [BTP2, N-[4-[3,5-bis(trifluoromethyl)pyrazol-1-yl]phenyl]-4-methylthiadiazole-5-carboxamide] as the compound, how does the “Ca2+ released from the stores after addition of Tg versus control” value ([1]; 3 μM BTP2, 15 min, control HT-22 cells) read?
**A.** Its value is “no significative difference”.

**Q.** And the “decrease of Ca2+ entry through the plasma membrane relative to control without BTP2” value ([1]; 3 μM BTP2, 15 min preincubation, 37 °C, control HT-22 cells, mean ± SEM, n > 80 cells)?
**A.** The value was 71 ± 8%.

**Q.** With `N#CC(C#N)=NNc1ccc(OC(F)(F)F)cc1` [FCCP, trifluoromethoxy carbonylcyanide phenylhydrazone] as the compound, how does the “mitochondria membrane potential after addition (positive control of depolarization)” value (HT-22 cells [2]; 5 μM FCCP, TMRE-loaded HT-22 cells) read?
**A.** The value was “large decrease”.

**Q.** For `CC(=O)OCC[N+](C)(C)C` [acetylcholine], which “fraction of HT22 cells showing intracellular calcium concentration peaks” value (HT22 cells; 100 μM acetylcholine, Fluo3-loaded cells) is on record?
**A.** Its value is “less than 25%”.

**Q.** And the “intracellular calcium response in the majority of the cells” value (HT22 cells)?
**A.** The value was “almost negligible”.

**Q.** For `C[N+](C)(C)CCOC(N)=O` [carbachol], which “intracellular calcium response in the majority of the cells” value (HT22 cells) is on record?
**A.** Its value is “almost negligible”.

**Q.** For “Aβ(1-42): Unlabeled amyloid β peptide (1-42), synthesized and supplied by StabVida”, which “STIM1 co-immunoprecipitation with anti-Aβ(1-42) antibody” value (STIM1) is on record?
**A.** The value was “formation of STIM1-Aβ complexes”.

**Q.** And the “concentration of internalized Aβ(1-42) monomers” value (HT-22 cells [3]; 2 h)?
**A.** Its value is 62 ± 11 nM.

**Q.** What about the “concentration of internalized Aβ(1-42) monomers” value (HT-22 cells [3]; 5 h) of the same compound?
**A.** The value was 135 ± 15 nM.

**Q.** What about the “inhibition of PDI activity” value (PDI) of the same compound?
**A.** The value was “did not significantly inhibit”.

**Q.** And the “internalized Aβ(1-42)” value [4]?
**A.** Its value is “about 193 ± 21 nM”.

**Q.** And the “GSH levels versus untreated cells” value (HT-22 cells [5])?
**A.** The value was “not significantly different”.

**Q.** And the “increase in ROS production compared with untreated cells” value (HT-22 cells [6]; 2 h)?
**A.** Its value is 1.3 fold.

**Q.** And the “increase in ROS production compared with untreated cells” value (HT-22 cells [6]; 5 h)?
**A.** Its value is 1.7 fold.

**Q.** And the “inhibition of Ca2+ released from stores after Tg addition” value ([1]; 2 μM Aβ(1-42) 2 h plus 3 μM BTP2 15 min, mean ± SEM)?
**A.** Its value is 42 ± 6%.

**Q.** And the “inhibition of Ca2+ release from the stores after Tg addition, compared with control” value ([1]; 2 μM Aβ(1-42), 2 h, 37 °C, 2 μM Tg, Ca2+-free medium, ΔF/F0, mean ± SEM, n > 80 cells)?
**A.** Its value is 37 ± 7%.

**Q.** And the “inhibition of Ca2+ entry through the plasma membrane after Ca2+ addition, compared with control” value ([1]; 2 μM Aβ(1-42), 2 h, 37 °C, 3 mM Ca2+ after Tg, ΔF/F0, mean ± SEM, n > 80 cells)?
**A.** The value was 32 ± 6%.

**Q.** And the “SOCE induced by Aβ(1-42) in the absence of Tg” value ([1]; HT-22 cells, no thapsigargin)?
**A.** Its value is “did not detect”.

**Q.** What about the “intracellular Ca2+ concentration [Ca2+]i” value (HT-22 cells [7]; 2 h) of the same compound?
**A.** Its value is 81 ± 9 nM.

**Q.** What about the “intracellular Ca2+ concentration [Ca2+]i” value (HT-22 cells [7]; 5 h) of the same compound?
**A.** Its value is 82 ± 8 nM.

**Q.** What about the “Tg-induced Ca2+ released from the stores, compared with cells treated only with Aβ(1-42)” value (RyR; 2 μM Aβ(1-42) 2 h plus 100 μM ryanodine) of the same compound?
**A.** Its value is “three-fold higher”.

**Q.** And the “mitochondria membrane potential (TMRE ΔF/F0 before/after FCCP) versus control” value (HT-22 cells [2]; 2 μM Aβ(1-42), 2 h or 5 h, p > 0.05)?
**A.** The value was “not altering the mitochondria membrane potential”.

**Q.** For ryanodine, which “increase of ER Ca2+ content (Tg-induced Ca2+ release from stores) versus control without ryanodine” value (RyR; 100 μM ryanodine, 1 h, 37 °C, control HT-22 cells, 2 μM Tg) is on record?
**A.** Its value is “about 2.2 fold”.
